Data taken from a compilation of properties of binary mixtures (doi:10.1021/acs.jpcb.5b11900).

Assay: xn = mol fraction of the nth substance listed
Conditions: 101 kPa

CC[NH+](CC)CC.O=[N+]([O-])[O-] + CC[NH3+].O=[N+]([O-])[O-]
Conditions	electrical conductivity, 293.15 K [S/m]	electrical conductivity, 298.15 K [S/m]	electrical conductivity, 303.15 K [S/m]	electrical conductivity, 308.15 K [S/m]	electrical conductivity, 313.15 K [S/m]	viscosity, 293.15 K [mPa·s]	viscosity, 298.15 K [mPa·s]	viscosity, 303.15 K [mPa·s]	viscosity, 308.15 K [mPa·s]	viscosity, 313.15 K [mPa·s]
x1 = 0.0499	1.67	1.96	2.27	2.6	2.96	46.6	39	32.9	28.1	24.1
x1 = 0.0999	1.45	1.71	1.99	2.29	2.61	51.2	42.5	35.7	30.3	26
x1 = 0.149	–	–	1.77	2.05	2.35	–	–	37.9	32.1	27.7
x1 = 0.1997	–	1.36	1.59	1.84	2.12	–	51.1	42.5	35.7	30.7
x1 = 0.25	–	1.16	1.36	1.58	1.81	–	56.2	46.5	39	33
x1 = 0.2993	–	1.02	1.2	1.4	1.63	–	62.4	51.4	42.8	36.1
x1 = 0.3475	–	0.95	–	1.31	1.52	–	66.9	–	45.4	38.5
x1 = 0.3995	0.71	0.85	1.01	1.18	–	90.2	71.8	58.5	48.3	–
x1 = 0.4472	0.62	0.75	0.9	1.06	–	100	79.3	64.3	52.8	–
x1 = 0.5003	0.56	0.68	0.82	0.96	–	108.1	85.2	68.8	56.3	–
x1 = 0.5485	0.56	0.68	0.81	0.96	–	105.4	83.1	67	54.7	–
